Data published in patent publication US5296495A, “Thiazolylbenzofuran derivatives and pharmaceutical composition comprising the same” (Fujisawa Pharmaceutical Co., Ltd., priority 1991, dated 1994).
pIC50: −log10 of the molar value. Where a name gives a salt, the structure may show the parent alone.

Molecular target: T1, Leukotriene D4 receptor (Cavia porcellus, UniProt Q2NNR5)
T1 construct: The trachea and lung were removed; from tissue; host or cells: guinea pig (male Hartley) trachea and lung, crude membrane fraction
T1 sequence (Q2NNR5 1-340): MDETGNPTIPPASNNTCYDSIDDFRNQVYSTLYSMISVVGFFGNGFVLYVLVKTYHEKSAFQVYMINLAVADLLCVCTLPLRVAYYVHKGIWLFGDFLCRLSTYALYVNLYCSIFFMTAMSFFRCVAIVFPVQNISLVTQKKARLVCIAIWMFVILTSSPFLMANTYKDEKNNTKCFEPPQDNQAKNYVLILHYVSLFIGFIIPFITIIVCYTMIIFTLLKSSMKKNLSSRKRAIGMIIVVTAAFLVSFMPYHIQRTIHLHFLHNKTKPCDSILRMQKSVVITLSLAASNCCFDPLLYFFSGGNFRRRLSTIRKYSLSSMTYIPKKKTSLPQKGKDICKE
Experiment: 3H-Leukotriene D4 receptor binding (guinea pig crude lung membrane)
Details: 3H-Leukotriene D4 (0.3 nM), pH 7.5, 25° C., 30 minutes
Experimental: ^3 H-Leukotriene D4 receptor binding (i) Test Method (a) Crude lung membrane preparation Male Hartly strain guinea pigs were sacrificed by decapitation. The trachea and lung were removed and homogenized buffer (0.25M sucrose, 10 mM Tris-HCl pH 7.5, 0.1 mM EDTA) by using Polytoron (Kinematica). The homogenate was centrifuged (1000×g, 10 min) to remove tissue clumps and the supernatant was centrifuges (14000×g, 20 min) to yield pellets. The pellets were resuspended in buffer (5 mM Tris-HCl pH 7.5), homogenized with a teflon homogenizer and centrifuged (14000×g, 20 min) to yield pellets which were referred to as crude membrane fractions. The obtained pellets were stored at -70° C. until use. (b) ^3 H-Leukotriene D4 binding to preparation membrane Frozen crude membrane fractions were thawed and resuspended in Medium 1 (10 mM Tris-HCl pH 7.5, 10 mM CaCl2, 10 mM MgCl2, 5 mM cysteine, 5 mM glycine). In binding assays, ^3 H-Leukotriene D4 (0.3 nM) and drug were incubated with 100 μl of the membrane preparation in Medium 1 at 25° C. for 30 minutes in a final volume of 500 μl. Separation of receptor-bound from free ^3 H-Leukotriene D4 is achieved by immediate filtration through Whatman GF/B filters under vacuum and washed three times with 5 ml of ice-cold buffer (10 mM Tris-HCl pH 7.5). Non-specific binding was defined as binding in the presence of 1 μM Leukotriene D4. The radioactivity retained on rinsed filters was determined by a liquid-scintillation counter (Packerd TRI-CARB 4530).

| SMILES | pIC50 |
| --- | --- |
| CC(C)(Cc1ccc2oc(-c3nc(C(C)(C)C)cs3)cc2c1)C(=O)Nc1nnn[nH]1 [19-2), 4-tert-Butyl-2-[5-{2-methyl-2-(1H-tetrazol-5-yl)carbamoylpropyl}benzofuran-2-yl]thiazole] | 7.17 |
| Cc1ccccc1S(=O)(=O)NC(=O)c1ccccc1COc1ccc2oc(-c3nc(C(C)(C)C)cs3)cc2c1 [Example 18, 4-tert-butyl-2-{5-[2-(2-methylbenzenesulfonamidocarbonyl)phenylmethoxy]benzofuran-2-yl}thiazole] | 7.31 |

The remaining molecules from weak to strong by pIC50, led by results:

| pIC50 | SMILES |
| --- | --- |
| 7.42 | CC(C)(C)c1csc(-c2cc3cc(OCc4ccccc4Cc4nnn[nH]4)ccc3o2)n1 [Example 12, 5-{2-(2-(4-tert-butylthiazol-2-yl)benzofuran-5-yloxymethyl]phenylmethyl}-1H-tetrazole] |
| 7.75 | CC(C)(C)c1csc(-c2cc3cc(OCc4cccc(-c5nnn[nH]5)c4)ccc3o2)n1 [13-2), 5-{3-[2-(4-tert-Butylthiazol-2-yl)benzofuran-5-yloxymethyl]phenyl}-1H-tetrazole] |
| 7.86 | CC(C)(C)c1csc(-c2cc3cc(OCc4ccccc4CC(=O)O)ccc3o2)n1 [Example 51, 4-tert-butyl-2-[5-(2-carboxymethylphenylmethoxy)benzofuran-2-yl]thiazole hydrochloride] |
